Measured values: article PMC11904993, “Humanized Candida and NanoBiT Assays Expedite Discovery of Bdf1 Bromodomain Inhibitors With Antifungal Potential” (Advanced Science, 2025)
Several values for one entry are separate records, joined by “and”; a condition that tells them apart may be missing. Equal entries are not always repeated. Where two headings read alike, the source gives them in different places.

Key:
human Brd4 BD1 = human Brd4 BD1 (Homo sapiens, UniProt O60885); experiment: HTRF assay, inhibition of H4ac4 peptide binding; settings: Fig 2E
Bmh1/Bmh2 = experiment: NanoBiT assay, control pair; type: cell-based, S. cerevisiae; parameters: Normalized nanoBiT signal: unit of the concentration uncertain; settings: for Normalized nanoBiT signal: Bmh1-LgBiT, Bmh2-SmBiT, Fig 4C
Protocol: Yeast strains were distributed in 96‐well microplates containing SC(MSG)‐U medium (SC‐U medium with 0.1% monosodium glutamate instead of ammonium sulfate as a nitrogen source) and grown at 30 °C. 40 µL of exponentially growing cells were transferred in white 96‐well half‐area microplates (ProxiPlate Plus, Greiner Bio‐One) previously filled with 40 µL per well of SC(MSG) containing 100 µM furimazine. The microplates were then incubated for 10 min in the dark before the luminescence signals were recorded using a microplate reader (Ensight, PerkinElmer). Luminescence measurements were performed for 1 s per well at a distance of 0.1 mm between the plate and the detector. The luminescence values were normalized with the optical density (OD600) of the corresponding cultures. For NanoBiT assays with BET inhibitors, yeast cultures were grown overnight at 30 °C in SC(MSG) medium in the presence of serial dilutions of 24c and I‐BET726. Overnight cultures were diluted 5 fold in SC(MSG) and incubated for 1 h before luminescence was recorded as previously indicated. Luminescence values for each condition were normalized using the average of the luminescence recorded for the Bdf1/Swc4 and Bmh1/Bmh2 controls.

C. auris Bdf1 BD2 = C. auris Bdf1 BD2 (Candidozyma auris (Candida auris), UniProt A0AAW0VEM6); experiment: HTRF assay, inhibition of H4ac4 peptide binding
CgBdf1 BD1 = CgBdf1 BD1 (Candida glabrata, UniProt Q6FWV7); experiment: HTRF assay, inhibition of H4ac4 peptide binding; parameters: species or system C. glabrata; settings: for %HTRF Signal Cg Bdf1 BD1: 240 min
CgBdf1 BD2 = CgBdf1 BD2 (Candida glabrata, UniProt Q6FWV7); experiment: biochemical; type: binding, C. glabrata
[1] = tested on: C. glabrata expressing humanized Bdf1 (Brd4 BDs); experiment: Growth inhibition in liquid media, humanized C. glabrata strains; settings: Fig 3D; 50 µM; humanized BDF1-flag; Exp 1-3
Protocol: Growth on Liquid Media with C. glabrata Lab Strains: Cells were grown at 30 °C in SC+M+C‐U medium (SC medium with 5 mM methionine, 0.25 mM cysteine, without uracil) to an OD600 of 0.5–0.8. […] Plates were incubated at 30 °C and OD600 was measured using a Multiskan FC Microplate Photometer (Thermo Fisher).

CgBdf1 BD1, sequence (Q6FWV7 entry or part of it): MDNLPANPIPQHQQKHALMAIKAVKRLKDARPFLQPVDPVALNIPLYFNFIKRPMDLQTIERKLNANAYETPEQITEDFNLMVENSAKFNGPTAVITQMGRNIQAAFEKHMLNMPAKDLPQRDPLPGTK
CgBdf1 BD2, sequence (Q6FWV7 entry or part of it): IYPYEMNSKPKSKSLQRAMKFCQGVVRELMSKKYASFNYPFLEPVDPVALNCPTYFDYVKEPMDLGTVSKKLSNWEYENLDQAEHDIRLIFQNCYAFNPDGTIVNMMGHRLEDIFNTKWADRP
C. auris Bdf1 BD2, sequence (A0AAW0VEM6 entry or part of it): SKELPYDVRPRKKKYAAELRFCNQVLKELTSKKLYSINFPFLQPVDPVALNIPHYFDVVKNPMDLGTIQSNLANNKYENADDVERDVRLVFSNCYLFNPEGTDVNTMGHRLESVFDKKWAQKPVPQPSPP

What does the source list for `Cc1ccc(-c2nnc(C)c(NCc3ccc(C)o3)n2)cc1` [Compound 24c, 6‐methyl‐N‐((5‐methylfuran‐2‐yl)methyl)‐3‐(p‐tolyl)‐1,2,4‐triazin‐5‐amine]?
%HTRF Signal hBrd4 BD1 (human Brd4 BD1; 8.000 microM): 95.80% and 101.11% and 96.69%; %HTRF Signal hBrd4 BD1 (human Brd4 BD1; 20.000 microM): 84.01% and 92.12% and 87.26%; Normalized nanoBiT signal (Bmh1/Bmh2; 0.1953 (unit uncertain)): 107% and 92% and 96% and 99%; Normalized nanoBiT signal (Bmh1/Bmh2; 0.3906 (unit uncertain)): 88% and 99% and 103%; Normalized nanoBiT signal (Bmh1/Bmh2; 0.7813 (unit uncertain)): 86% and 104% and 98% and 103%; Normalized nanoBiT signal (Bmh1/Bmh2; 1.5625 (unit uncertain)): 100% and 97% and 101%; Normalized nanoBiT signal (Bmh1/Bmh2; 3.1250 (unit uncertain)): 93% and 97% (2×) and 103%; Normalized nanoBiT signal (Bmh1/Bmh2; 50.0000 (unit uncertain)): 79% and 98% and 101% and 93%; Normalized nanoBiT signal (Bmh1/Bmh2; 100.0000 (unit uncertain)): 95% and 97% and 100% and 88%; inhibition of NanoBiT signal, Bmh1/Bmh2 (Bmh1/Bmh2; unrelated control pair): not observed; remaining activity at 0.0021 µM (C. auris Bdf1 BD2; CauBD2, 24c 0.0021 microM, Exp1-3, read-out: Percent HTRF Signal): 100%; remaining activity at 0.0052 µM (C. auris Bdf1 BD2; CauBD2, 24c 0.0052 microM, Exp1-3, read-out: Percent HTRF Signal): 94.4%; remaining activity at 0.013 µM (C. auris Bdf1 BD2; CauBD2, 24c 0.013 microM, Exp1-3, read-out: Percent HTRF Signal): 99.2%; remaining activity at 0.033 µM (C. auris Bdf1 BD2; CauBD2, 24c 0.033 microM, Exp1-3, read-out: Percent HTRF Signal): 100%; remaining activity at 0.082 µM (C. auris Bdf1 BD2; CauBD2, 24c 0.082 microM, Exp1-3, read-out: Percent HTRF Signal): 106%; remaining activity at 0.2 µM (C. auris Bdf1 BD2; CauBD2, 24c 0.20 microM, Exp1-3, read-out: Percent HTRF Signal): 105%; remaining activity at […] (C. auris Bdf1 BD2; CauBD2, 24c 0.51 microM, Exp1-3, read-out: Percent HTRF Signal): 99.5%; remaining activity at 1.28 µM (C. auris Bdf1 BD2; CauBD2, 24c 1.28 microM, Exp1-3, read-out: Percent HTRF Signal): 100%; remaining activity at 3.2 µM (C. auris Bdf1 BD2; CauBD2, 24c 3.20 microM, Exp1-3, read-out: Percent HTRF Signal): 98.7%; remaining activity at 8 µM (C. auris Bdf1 BD2; CauBD2, 24c 8.00 microM, Exp1-3, read-out: Percent HTRF Signal): 84%; remaining activity at 20 µM (C. auris Bdf1 BD2; CauBD2, 24c 20.00 microM, Exp1-3, read-out: Percent HTRF Signal): 79.1%; inhibition of Bdf1 BD2 from C. auris (C. auris Bdf1 BD2; HTRF, Fig S9C): weakly inhibited; activity at 0.002 µM (CgBdf1 BD1; 4 h, Fig 2E, 0.002 microM, read-out: %HTRF Signal Cg Bdf1 BD1): 102%; activity at 0.005 µM (CgBdf1 BD1; 4 h, Fig 2E, 0.005 microM, read-out: %HTRF Signal Cg Bdf1 BD1): 97.9%; activity at 0.013 µM (CgBdf1 BD1; 4 h, Fig 2E, 0.013 microM, read-out: %HTRF Signal Cg Bdf1 BD1): 101%; activity at 0.033 µM (CgBdf1 BD1; 4 h, Fig 2E, 0.033 microM, read-out: %HTRF Signal Cg Bdf1 BD1): 96.4%; activity at 0.082 µM (CgBdf1 BD1; 4 h, Fig 2E, 0.082 microM, read-out: %HTRF Signal Cg Bdf1 BD1): 98%; activity at 0.205 µM (CgBdf1 BD1; 4 h, Fig 2E, 0.205 microM, read-out: %HTRF Signal Cg Bdf1 BD1): 97.5%; activity at 0.512 µM (CgBdf1 BD1; 4 h, Fig 2E, 0.512 microM, read-out: %HTRF Signal Cg Bdf1 BD1): 94.4%; activity at 1.28 µM (CgBdf1 BD1; 4 h, Fig 2E, 1.280 microM, read-out: %HTRF Signal Cg Bdf1 BD1): 88.7%; activity at 3.2 µM (CgBdf1 BD1; 4 h, Fig 2E, 3.200 microM, read-out: %HTRF Signal Cg Bdf1 BD1): 75%; activity at 8 µM (CgBdf1 BD1; 4 h, Fig 2E, 8.000 microM, read-out: %HTRF Signal Cg Bdf1 BD1): 48.9%; activity at 20 µM (CgBdf1 BD1; 4 h, Fig 2E, 20.000 microM, read-out: %HTRF Signal Cg Bdf1 BD1): 25.2%; IC50 (CgBdf1 BD1; Fig 2C original data, analogs of 24, single experiments Exp1-3, read-out: pIC50 CgBD1 (converted)): 8.28 µM and 7.31 µM and 9.27 µM; %HTRF Signal Cg Bdf1 BD1 (CgBdf1 BD1; Fig 2E, 0.002 microM): 102.33% and 103.65%; %HTRF Signal Cg Bdf1 BD1 (CgBdf1 BD1; Fig 2E, 0.005 microM): 104.91% and 102.28%; %HTRF Signal Cg Bdf1 BD1 (CgBdf1 BD1; Fig 2E, 0.013 microM): 100.44% and 101.24%; %HTRF Signal Cg Bdf1 BD1 (CgBdf1 BD1; Fig 2E, 0.033 microM): 102.26% and 102.17%; %HTRF Signal Cg Bdf1 BD1 (CgBdf1 BD1; Fig 2E, 0.082 microM): 100.01% and 99.64%; %HTRF Signal Cg Bdf1 BD1 (CgBdf1 BD1; Fig 2E, 0.205 microM): 100.01% and 98.57%; %HTRF Signal Cg Bdf1 BD1 (CgBdf1 BD1; Fig 2E, 0.512 microM): 94.98% and 94.31%; %HTRF Signal Cg Bdf1 BD1 (CgBdf1 BD1; Fig 2E, 1.280 microM, 1.28 µM): 89.76% and 89.41%; %HTRF Signal Cg Bdf1 BD1 (CgBdf1 BD1; Fig 2E, 3.200 microM, 3.2 µM): 77.27% and 82.10%; %HTRF Signal Cg Bdf1 BD1 (CgBdf1 BD1; Fig 2E, 8.000 microM): 45.31% and 53.86%; %HTRF Signal Cg Bdf1 BD1 (CgBdf1 BD1; Fig 2E, 20.000 microM): 17.43% and 18.98%; IC50 (CgBdf1 BD1; Fig 2E, mean and s.d., three independent experiments, read-out: IC50 (μM) CgBD1): 8.28 µM and 8 µM; fold drop in CgBD1 inhibition (CgBdf1 BD1; relative to 24, thiophenyl replaced by furyl or methylfuryl): 4 fold; activity at 0.002 µM (CgBdf1 BD2; 24 h, Fig 2E, 0.002 microM, read-out: %HTRF Signal CgBdf1 BD2): 108%; activity at 0.005 µM (CgBdf1 BD2; 24 h, Fig 2E, 0.005 microM, read-out: %HTRF Signal CgBdf1 BD2): 102%; activity at 0.013 µM (CgBdf1 BD2; 24 h, Fig 2E, 0.013 microM, read-out: %HTRF Signal CgBdf1 BD2): 118%; activity at 0.033 µM (CgBdf1 BD2; 24 h, Fig 2E, 0.033 microM, read-out: %HTRF Signal CgBdf1 BD2): 109%; activity at 0.082 µM (CgBdf1 BD2; 24 h, Fig 2E, 0.082 microM, read-out: %HTRF Signal CgBdf1 BD2): 99.8%; activity at 0.205 µM (CgBdf1 BD2; 24 h, Fig 2E, 0.205 microM, read-out: %HTRF Signal CgBdf1 BD2): 104%; activity at 0.512 µM (CgBdf1 BD2; 24 h, Fig 2E, 0.512 microM, read-out: %HTRF Signal CgBdf1 BD2): 101%; activity at 1.28 µM (CgBdf1 BD2; 24 h, Fig 2E, 1.280 microM, read-out: %HTRF Signal CgBdf1 BD2): 93.8%; activity at 3.2 µM (CgBdf1 BD2; 24 h, Fig 2E, 3.200 microM, read-out: %HTRF Signal CgBdf1 BD2): 83.5%; activity at 8 µM (CgBdf1 BD2; 24 h, Fig 2E, 8.000 microM, read-out: %HTRF Signal CgBdf1 BD2): 60.2%; IC50 (CgBdf1 BD2; Fig 2C original data, analogs of 24, single experiments Exp1-3, read-out: pIC50 CgBD2 (converted)): 13.9 µM and 12 µM and 9.53 µM; IC50 (CgBdf1 BD2; Fig 2E, mean and s.d., three independent experiments, read-out: IC50 (μM) CgBD2): 11.8 µM and 12 µM; %Growth [1]: 82.6% and 80.3% and 69.6%
